≈ marks a conversion by molar mass, not a printed value. A value given as a limit tells only on which side of the number the result lay.

The subject of data set [1] is Fusobacterium symbiosum. The data set is described as follows: standard agar-dilution test, anaerobic bacteria. The format is cell-based. To be noted: 2 h.
Data set [2] relates to Streptococcus faecalis. The data set is described as follows: standard agar-dilution test. The following applies: Enterococcus faecalis. The format is cell-based. From the text: (§1) A-40104 factor A is an especially useful antibacterial agent. The minimal inhibitory concentrations (MIC's) at which A-40104 factor A inhibits selected bacteria, as determined by standard agar-dilution tests, are summarized in Table III.

For data set [3], the system named is Staphylococcus aureus 3055. The data set is described as follows: standard agar-dilution test. The class given is cell-based.
Text: as §1

Data set [4] concerns Bordetella bronchiseptica. In words: standard agar-dilution test. The class given is cell-based.
Text: as §1

The test system of data set [5] is Staphylococcus aureus 3074. In words: standard agar-dilution test. The format is cell-based.
Text: as §1

Data set [6] deals with Streptococcus sp. 9960 (Group D). The data set is described as follows: gradient-plate agar-dilution method. The format is cell-based.
Data set [7] concerns Hemophilus influenzae Laiv. The data set is described as follows: gradient-plate agar-dilution method. The format is cell-based. To be noted: Haemophilus influenzae.
Data set [8] concerns pathogenic organisms, particularly gram-positive bacteria. In words: antibacterial activity (general statement). The class given is cell-based.
The subject of data set [9] is Mycoplasma synoviae. The data set is described as follows: in vitro broth-dilution studies, mycoplasma. The format is cell-based. From the text: (§2) The minimal inhibitory concentrations (MIC's) of A-40104 factor A; 19,20-dihydro-A-40104 factor A; and the tetraacetyl derivative of A-40104A against various mycoplasma species, as determined by in vitro broth-dilution studies, are summarized in Table IX.

Data set [10] concerns Mycoplasma gallisepticum. The data set is described as follows: in vitro broth-dilution studies, mycoplasma. The class given is cell-based.
Text: as §2

The subject of data set [11] is Mycoplasma hyorhinis. In words: in vitro broth-dilution studies, mycoplasma. The class given is cell-based.
Text: as §2

Data set [12] deals with Mycoplasma hyopneumoniae. The data set is described as follows: in vitro broth-dilution studies, mycoplasma. The format is cell-based.
Text: as §2

The subject of data set [13] is Neisseria gonorrhea. In words: gradient-plate agar-dilution method. The class given is cell-based.
Data set [14] deals with Fusobacterium necrophorum. In words: standard agar-dilution test, anaerobic bacteria. The format is cell-based. The following applies: 2 h.
Data set [15] has as its system Peptostreptococcus intermedius. The data set is described as follows: standard agar-dilution test, anaerobic bacteria. To be noted: 2 h. The format is cell-based.
Data set [16] is described as follows: electrometric titration. The format is physicochemical. To be noted: 66 percent aqueous dimethylformamide.
Data set [17] has as its system Bacteroides fragilis 111. The data set is described as follows: standard agar-dilution test, anaerobic bacteria. The class given is cell-based. To be noted: Bacteroides fragilis, 111, 2 h.
Data set [18] concerns experimental bacterial infections. The data set is described as follows: experimental bacterial infections in mice (general statement). The format is in vivo. The procedure: When two doses of these compounds were administered to mice in illustrative infections, the activity observed was measured as an ED50 value [effective dose in mg./kg. to protect 50 percent of the test animals; see Warren Wick, et al., J. Bacteriol. 81, 233-235 (1961)].

`C=CC1(C)CC(OC(=O)CO[C@@H]2OC[C@@H](O)[C@H](O)[C@H]2O)C2(C)C(C)CCC3(CCC(=O)C32)C(C)C1O` (stereo partly drawn) [A-40104 factor A, β,D-xylopyranosyl acetal derivative of pleuromutilin]: the MIC in [1] was 4 µg/mL (≈ 7.83 µM); in data set [2], under 0.5 µg/mL; in data set [3], under 0.5 µg/mL; in data set [4] it was under 0.5 µg/mL; in data set [5], under 0.5 µg/mL; in data set [6], 70 µg/mL (≈ 137 µM). Further, the MIC in [7] is 4 µg/mL (≈ 7.83 µM); in data set [13], 0.5 µg/mL (≈ 0.979 µM); in data set [14], at most 0.5 µg/mL; in [15], at most 0.5 µg/mL; in data set [17] it was 8 µg/mL (≈ 15.7 µM). Moreover, the “growth inhibition of pathogenic organisms” value in [8] is reported as “inhibit the growth of certain pathogenic organisms, particularly gram-positive bacteria”. The “minimal inhibitory concentration (MIC)” value is on record as at most 0.78 in data set [9], at most 0.78 in [10], 1.56 in data set [11] and 0.195 in data set [12]. Besides, the titratable groups result in [16] is “no titratable groups are present”. For the same compound, the “in vivo antimicrobial activity” value in [18] is “have shown in vivo antimicrobial activity”.

The values are drawn from patent publication US4129721A, “A-40104 antibiotics and process for production thereof” (priority 1977, dated 1978).
